Data from PubChem BioAssay AID330 (DTP/NCI, 2004).
Values joined by “and” are separate entries in the source; they are usually repeats but may differ in a detail not shown here. Equal entries are not always repeated. Toxic doses and inconclusive results are not listed.

System: P388 leukemia ip, CD2F1 mice, survival T/C
Assay: NCI In Vivo Anticancer Drug Screen. Data for tumor model P388 Leukemia (intraperitoneal) in CD2F1 (CDF1) mice
Details: endpoint: median survival time, higher = longer survival
Outline: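 Mice carrying the transplanted tumor received test compound or vehicle. Survival was recorded in each group, and the value is the treated-group measurement divided by that of the vehicle-treated control group.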

[1] = dose: 25.0 mg/kg/injection, schedule: Q01DX009 (ip), vehicle: saline with Tween-80
[2] = dose: 50.0 mg/kg/injection, schedule: Q01DX009 (ip), vehicle: saline with Tween-80
[3] = dose: 100.0 mg/kg/injection, schedule: Q01DX009 (ip), vehicle: saline with Tween-80
[4] = dose: 200.0 mg/kg/injection, schedule: Q01DX009 (ip), vehicle: saline with Tween-80
[5] = dose: 60.0 mg/kg/injection, schedule: Q01DX005 (ip), vehicle: saline with Tween-80
[6] = dose: 120.0 mg/kg/injection, schedule: Q01DX005 (ip), vehicle: saline with Tween-80
[7] = dose: 240.0 mg/kg/injection, schedule: Q01DX005 (ip), vehicle: saline with Tween-80
[8] = dose: 60.0 mg/kg/injection, schedule: Q01DX005 (ip), vehicle: Klucel (hydroxypropylcellulose) (HPC)
[9] = dose: 120.0 mg/kg/injection, schedule: Q01DX005 (ip), vehicle: Klucel (hydroxypropylcellulose) (HPC)
[10] = dose: 50.0 mg/kg/injection, schedule: Q01DX005 (ip), vehicle: saline with Tween-80
[11] = dose: 100.0 mg/kg/injection, schedule: Q01DX005 (ip), vehicle: saline with Tween-80

Cc1ccc(CNc2ccccc2)cc1
T/C (dose: 100.0 mg/kg/injection, schedule: Q01DX009 (ip), vehicle: other): 100 % of control
T/C (dose: 200.0 mg/kg/injection, schedule: Q01DX009 (ip), vehicle: other): 100 % of control
T/C (dose: 400.0 mg/kg/injection, schedule: Q01DX009 (ip), vehicle: other): 100 % of control

COC1C=COC2(C)Oc3c(C)c(O)c4c(O)c(c(C5SCCS5)c(O)c4c3C2=O)NC(=O)/C(C)=C\C=CC(C)C(O)C(C)C(O)C(C)C(OC(C)=O)C1C (stereo not given)
T/C [1]: 100 % of control and 92 % of control
T/C [2]: 105 % of control and 106 % of control and 92 % of control
T/C [3]: 100 % of control and 108 % of control
T/C [4]: 109 % of control and 111 % of control and 115 % of control

O=[N+]([O-])c1ccc(N/N=C(\CBr)c2ccccc2)c([N+](=O)[O-])c1
T/C (dose: 100.0 mg/kg/injection, schedule: Q01DX001 (ip), vehicle: saline with Tween-80): 91 % of control
T/C (dose: 200.0 mg/kg/injection, schedule: Q01DX001 (ip), vehicle: saline with Tween-80): 87 % of control
T/C (dose: 400.0 mg/kg/injection, schedule: Q01DX001 (ip), vehicle: saline with Tween-80): 87 % of control

NC(=S)N/N=C1/CC(=O)N(c2ccccc2)C1c1ccccc1 (stereo not given)
T/C [5]: 103 % of control
T/C [6]: 98 % of control
T/C [7]: 94 % of control

N#CC(/C=C/c1ccccc1)(NO)Nc1cccc(Cl)c1 (stereo not given)
T/C [5]: 116 % of control
T/C [6]: 114 % of control

NC(=S)n1nc(-c2cccs2)c(N=Nc2ccc(Cl)cc2)c1C(F)(F)F
T/C [8]: 87 % of control
T/C [9]: 93 % of control

O=S(=O)(O)C(O)c1ccc(Cl)cc1Cl (stereo not given)
T/C (dose: 50.0 mg/kg/injection, schedule: Q01DX001 (ip), vehicle: Klucel (hydroxypropylcellulose) (HPC)): 100 % of control
T/C (dose: 100.0 mg/kg/injection, schedule: Q01DX001 (ip), vehicle: Klucel (hydroxypropylcellulose) (HPC)): 100 % of control
T/C (dose: 200.0 mg/kg/injection, schedule: Q01DX001 (ip), vehicle: Klucel (hydroxypropylcellulose) (HPC)): 116 % of control

CCOC(=O)C(=CNNCCC#N)C(=O)OCC
T/C [2]: 90 % of control
T/C [3]: 90 % of control
T/C [4]: 95 % of control

Cc1ccc(OP(=O)(Oc2ccc(C)cc2)Oc2ccc(C)cc2)cc1.Cc1ccc(OP(=O)(Oc2ccc(C)cc2)Oc2ccc(C)cc2)cc1.[Cl][Cu][Cl]
T/C (dose: 12.5 mg/kg/injection, schedule: Q04DX003 (ip), vehicle: Klucel (hydroxypropylcellulose) (HPC)): 99 % of control
T/C (dose: 25.0 mg/kg/injection, schedule: Q04DX003 (ip), vehicle: Klucel (hydroxypropylcellulose) (HPC)): 96 % of control
T/C (dose: 50.0 mg/kg/injection, schedule: Q04DX003 (ip), vehicle: Klucel (hydroxypropylcellulose) (HPC)): 99 % of control

CC(C)Cc1cc(-c2cc(CC(C)C)[nH]n2)n[nH]1
T/C [5]: 106 % of control
T/C [6]: 95 % of control
T/C [7]: 100 % of control

Cc1ccc(S(=O)(=O)OCCN(CCN(CCOS(=O)(=O)c2ccc(C)cc2)c2ccccc2)c2ccccc2)cc1
T/C (dose: 100.0 mg/kg/injection, schedule: Q04DX003 (ip), vehicle: Klucel (hydroxypropylcellulose) (HPC)): 99 % of control
T/C (dose: 200.0 mg/kg/injection, schedule: Q04DX003 (ip), vehicle: Klucel (hydroxypropylcellulose) (HPC)): 110 % of control
T/C (dose: 400.0 mg/kg/injection, schedule: Q04DX003 (ip), vehicle: Klucel (hydroxypropylcellulose) (HPC)): 101 % of control

Cc1ccc2c(c1)NC(=S)N=S2(C)=O (stereo not given)
T/C [2]: 95 % of control
T/C [3]: 93 % of control
T/C [4]: 102 % of control

COC(=O)c1nnn(-c2cccc(Cl)c2)c1N
T/C [5]: 95 % of control
T/C [6]: 95 % of control

COC(=O)[C@@H]1[C@H]2CC(C)(C)C[C@H]2C2=CCC[C@@H]21
T/C (dose: 18.5 mg/kg/injection, schedule: Q01DX005 (ip), vehicle: suspension in saline): 96 % of control
T/C (dose: 37.0 mg/kg/injection, schedule: Q01DX005 (ip), vehicle: suspension in saline): 98 % of control
T/C (dose: 74.0 mg/kg/injection, schedule: Q01DX005 (ip), vehicle: suspension in saline): 98 % of control

COC1CC(C)(OC(C)=O)Cc2cc3c(c(OC(C)=O)c21)C(=O)c1c(OC(C)=O)cc2c(c1C3=O)OC1OC2(C)C(OC(C)=O)C(N(C)C)C1OC(C)=O (stereo not given)
T/C (dose: 1.25 mg/kg/injection, schedule: Q01DX009 (ip), vehicle: other): 102 % of control
T/C (dose: 2.5 mg/kg/injection, schedule: Q01DX009 (ip), vehicle: other): 112 % of control and 106 % of control
T/C (dose: 5.0 mg/kg/injection, schedule: Q01DX009 (ip), vehicle: other): 105 % of control and 101 % of control
T/C (dose: 10.0 mg/kg/injection, schedule: Q01DX009 (ip), vehicle: other): 114 % of control and 115 % of control
T/C (dose: 20.0 mg/kg/injection, schedule: Q01DX009 (ip), vehicle: other): 121 % of control

CNc1cn(C2OC(CO)C(O)C2O)c(=O)[nH]c1=O (stereo not given)
T/C (dose: 50.0 mg/kg/injection, schedule: Q01DX005 (ip), vehicle: saline): 122 % of control
T/C (dose: 100.0 mg/kg/injection, schedule: Q01DX005 (ip), vehicle: saline): 110 % of control
T/C (dose: 200.0 mg/kg/injection, schedule: Q01DX005 (ip), vehicle: saline): 105 % of control

COc1cc(/C=C/C(C)=N/NC(N)=S)cc(OC)c1OC
T/C (dose: 3.75 mg/kg/injection, schedule: Q01DX005 (ip), vehicle: Klucel (hydroxypropylcellulose) (HPC)): 102 % of control
T/C (dose: 7.5 mg/kg/injection, schedule: Q01DX005 (ip), vehicle: Klucel (hydroxypropylcellulose) (HPC)): 105 % of control
T/C (dose: 15.0 mg/kg/injection, schedule: Q01DX005 (ip), vehicle: Klucel (hydroxypropylcellulose) (HPC)): 99 % of control
T/C (dose: 30.0 mg/kg/injection, schedule: Q01DX005 (ip), vehicle: Klucel (hydroxypropylcellulose) (HPC)): 90 % of control and 94 % of control

CCNC(C)(C)C(SSSC(c1ccc(C(F)(F)F)cc1)C(C)(C)NCC)c1ccc(C(F)(F)F)cc1 (stereo not given)
T/C (dose: 25.0 mg/kg/injection, schedule: Q04DX003 (ip), vehicle: saline): 107 % of control
T/C (dose: 50.0 mg/kg/injection, schedule: Q04DX003 (ip), vehicle: saline): 107 % of control
T/C (dose: 100.0 mg/kg/injection, schedule: Q04DX003 (ip), vehicle: saline): 103 % of control

O=C1c2ccccc2C(=Cc2cccnc2)c2ccccc21
T/C (dose: 6.25 mg/kg/injection, schedule: Q01DX009 (ip), vehicle: saline with Tween-80): 94 % of control
T/C (dose: 12.5 mg/kg/injection, schedule: Q01DX009 (ip), vehicle: saline with Tween-80): 105 % of control
T/C [1]: 102 % of control
T/C [2]: 91 % of control

CCCCCCCCCCC(=O)N(C(C)CC(C)C)C1CC(C)CC(C)(C)C1 (stereo not given)
T/C [10]: 104 % of control
T/C [11]: 100 % of control
T/C (dose: 200.0 mg/kg/injection, schedule: Q01DX005 (ip), vehicle: saline with Tween-80): 101 % of control

O=C1ON=C(COc2ccccc2)/C1=C\c1ccc(Cl)cc1
T/C (dose: 15.0 mg/kg/injection, schedule: Q01DX005 (ip), vehicle: saline with Tween-80): 105 % of control
T/C (dose: 30.0 mg/kg/injection, schedule: Q01DX005 (ip), vehicle: saline with Tween-80): 101 % of control
T/C [5]: 104 % of control

O=c1oc(-c2ccccc2)cc(N(c2ccccc2)c2ccccc2)c1Cl
T/C [2]: 93 % of control
T/C [3]: 93 % of control
T/C [4]: 95 % of control

COP(=O)(OC)OC.COP(=O)(OC)OC.COP(=O)(OC)OC.COP(=O)(OC)OC.COP(=O)(OC)OC.[O-][Cl+3]([O-])([O-])O.[Zn+2]
T/C (dose: 25.0 mg/kg/injection, schedule: Q01DX009 (ip), vehicle: saline): 104 % of control and 114 % of control
T/C (dose: 50.0 mg/kg/injection, schedule: Q01DX009 (ip), vehicle: saline): 106 % of control and 112 % of control (2×)
T/C (dose: 100.0 mg/kg/injection, schedule: Q01DX009 (ip), vehicle: saline): 118 % of control and 119 % of control and 123 % of control

O=C1C=CC2(CCC23C=C(Br)C(=O)O3)O1 (stereo not given)
T/C (dose: 5.0 mg/kg/injection, schedule: Q01DX009 (ip), vehicle: Klucel (hydroxypropylcellulose) (HPC)): 102 % of control
T/C (dose: 10.0 mg/kg/injection, schedule: Q01DX009 (ip), vehicle: Klucel (hydroxypropylcellulose) (HPC)): 108 % of control
T/C (dose: 20.0 mg/kg/injection, schedule: Q01DX009 (ip), vehicle: Klucel (hydroxypropylcellulose) (HPC)): 106 % of control

O=C1c2cccc3cccc(c23)C(=O)N1CCc1ccccn1
T/C [10]: 107 % of control
T/C [11]: 98 % of control

O=C(O)CCNC1=CC(=O)c2ccccc2C1=O
T/C (dose: 50.0 mg/kg/injection, schedule: Q01DX009 (ip), vehicle: Klucel (hydroxypropylcellulose) (HPC)): 102 % of control
T/C (dose: 100.0 mg/kg/injection, schedule: Q01DX009 (ip), vehicle: Klucel (hydroxypropylcellulose) (HPC)): 110 % of control

Cc1cccc(N=NC2Sc3nc4ccccc4n3C2=O)c1 (stereo not given)
T/C [8]: 89 % of control
T/C [9]: 91 % of control
